Laboratory results taken from PubChem BioAssay AID328 (DTP/NCI, 2004).
Several values for one entry are separate records, joined by “and”; a condition that tells them apart may be missing. Equal values may be shown once. Toxic doses and inconclusive results are not listed.

Test system: BDF1 mice, P388 leukemia ip, median survival T/C
Experiment: NCI In Vivo Anticancer Drug Screen. Data for tumor model P388 Leukemia (intraperitoneal) in B6D2F1 (BDF1) mice
Conditions: endpoint: median survival time, higher = longer survival
Summary of the method: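 Compound-treated tumour-bearing mice were compared with vehicle-treated controls. Survival was recorded, and the value is the treated-group measurement divided by the control-group measurement (T/C).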

[1] = dose: 25.0 mg/kg/injection, schedule: Q04DX003 (ip), vehicle: saline
[2] = dose: 50.0 mg/kg/injection, schedule: Q04DX003 (ip), vehicle: saline
[3] = dose: 75.0 mg/kg/injection, schedule: Q01DX009 (ip), vehicle: saline
[4] = dose: 100.0 mg/kg/injection, schedule: Q01DX009 (ip), vehicle: Klucel (hydroxypropylcellulose) (HPC)
[5] = dose: 100.0 mg/kg/injection, schedule: Q04DX003 (ip), vehicle: Klucel (hydroxypropylcellulose) (HPC)
[6] = dose: 200.0 mg/kg/injection, schedule: Q01DX009 (ip), vehicle: Klucel (hydroxypropylcellulose) (HPC)
[7] = dose: 200.0 mg/kg/injection, schedule: Q04DX003 (ip), vehicle: Klucel (hydroxypropylcellulose) (HPC)
[8] = dose: 400.0 mg/kg/injection, schedule: Q01DX009 (ip), vehicle: Klucel (hydroxypropylcellulose) (HPC)
[9] = dose: 400.0 mg/kg/injection, schedule: Q04DX003 (ip), vehicle: Klucel (hydroxypropylcellulose) (HPC)
[10] = dose: 100.0 mg/kg/injection, schedule: Q04DX003 (ip), vehicle: saline with Tween-80
[11] = dose: 200.0 mg/kg/injection, schedule: Q04DX003 (ip), vehicle: saline with Tween-80
[12] = dose: 400.0 mg/kg/injection, schedule: Q04DX003 (ip), vehicle: saline with Tween-80
[13] = dose: 50.0 mg/kg/injection, schedule: Q04DX003 (ip), vehicle: saline with Tween-80
[14] = dose: 50.0 mg/kg/injection, schedule: Q01DX009 (ip), vehicle: saline with Tween-80
[15] = dose: 100.0 mg/kg/injection, schedule: Q01DX009 (ip), vehicle: saline with Tween-80
[16] = dose: 200.0 mg/kg/injection, schedule: Q01DX009 (ip), vehicle: saline with Tween-80
[17] = dose: 100.0 mg/kg/injection, schedule: Q04DX003 (ip), vehicle: saline

With CCn1cnc2c(SC)ncnc21 the T/C (dose: 18.75 mg/kg/injection, schedule: Q01DX009 (ip), vehicle: saline) was 109 % of control, the T/C [1] was 86 % of control and the T/C (dose: 37.5 mg/kg/injection, schedule: Q01DX009 (ip), vehicle: saline) was 100 % of control. The T/C [2] was 104 % of control, the T/C [3] was 104 % of control and the T/C (dose: 75.0 mg/kg/injection, schedule: Q04DX003 (ip), vehicle: Klucel (hydroxypropylcellulose) (HPC)) was 95 % of control.

Cc1ccc2c(c1)=N/C(=N\c1nc(O)c(O)[nH]1)N=2 was tested, and the T/C (dose: 60.0 mg/kg/injection, schedule: Q01DX009 (ip), vehicle: Klucel (hydroxypropylcellulose) (HPC)) was 98 % of control, the T/C (dose: 66.0 mg/kg/injection, schedule: Q01DX009 (ip), vehicle: Klucel (hydroxypropylcellulose) (HPC)) was 106 % of control and the T/C [4] was 103 % of control and 118 % of control. The T/C [5] was 104 % of control, the T/C (dose: 140.0 mg/kg/injection, schedule: Q01DX009 (ip), vehicle: Klucel (hydroxypropylcellulose) (HPC)) was 97 % of control and the T/C (dose: 150.0 mg/kg/injection, schedule: Q01DX009 (ip), vehicle: Klucel (hydroxypropylcellulose) (HPC)) was 168 % of control. For the same molecule, the T/C [6] was 116 % of control, the T/C [7] was 100 % of control and the T/C [8] was 111 % of control. The T/C [9] was 95 % of control.

For S=c1[nH]ccn2cnnc12, the T/C (dose: 100.0 mg/kg/injection, schedule: Q01DX001 (ip), vehicle: saline with Tween-80) was 88 % of control, the T/C (dose: 200.0 mg/kg/injection, schedule: Q01DX001 (ip), vehicle: saline with Tween-80) was 106 % of control and the T/C (dose: 400.0 mg/kg/injection, schedule: Q01DX001 (ip), vehicle: saline with Tween-80) was 100 % of control.

For COc1cc(C)c(NC(=O)Oc2ccccc2)c(C)c1, the T/C [10] was 104 % of control, the T/C [11] was 104 % of control and the T/C [12] was 104 % of control.

With CCOC(=O)C1(C)CCCC1=O (centres undefined) the T/C (dose: 12.5 mg/kg/injection, schedule: Q04DX003 (ip), vehicle: saline) was 100 % of control, the T/C [1] was 95 % of control and the T/C [2] was 90 % of control.

CN(C)CCNc1ccc(O)c2sc3ccccc3c(=O)c12 was tested, and the T/C (dose: 25.0 mg/kg/injection, schedule: Q04DX003 (ip), vehicle: saline with Tween-80) was 96 % of control, the T/C [13] was 109 % of control and the T/C [10] was 97 % of control.

O=C(O)c1ccc([N+](=O)[O-])s1 was tested, and the T/C [14] was 90 % of control, the T/C [15] was 95 % of control and the T/C [10] was 110 % of control. The T/C [11] was 100 % of control.

With CC1CCC2=C(C1)S(=O)(=O)CC2 (centres undefined) the T/C (dose: 6.25 mg/kg/injection, schedule: Q04DX002 (ip), vehicle: saline) was 103 % of control, the T/C (dose: 12.5 mg/kg/injection, schedule: Q04DX002 (ip), vehicle: saline) was 94 % of control and the T/C (dose: 25.0 mg/kg/injection, schedule: Q04DX002 (ip), vehicle: saline) was 103 % of control.

With CNC1=C2NC(=O)/C(C)=C\C=C\C(C)C(O)C(C)C(O)C(C)C(OC(C)=O)C(C)C(OC)/C=C/OC3(C)Oc4c(C)c(O)c(c(c4C3=O)C1=O)C2=O (centres undefined) the T/C [14] was 95 % of control, the T/C [15] was 90 % of control and the T/C [16] was 100 % of control.

For CC(C)(C)P(c1ccccc1)c1ccccc1, the T/C [13] was 111 % of control, the T/C [10] was 107 % of control and the T/C [11] was 96 % of control.

For O=C1CN(Cc2ccc3c(c2)OCO3)NO1, the T/C (dose: 25.0 mg/kg/injection, schedule: Q01DX009 (ip), vehicle: saline with Tween-80) was 113 % of control, the T/C [14] was 106 % of control and the T/C [15] was 123 % of control. For the same molecule, the T/C [16] was 115 % of control.

CCOC(=O)c1oc2ccccc2c1CN was tested, and the T/C [14] was 107 % of control and the T/C [15] was 107 % of control.

In the case of CCCNC(=O)Nc1cc(Cl)ccc1OC, the T/C [10] is reported as 95 % of control and the T/C [12] is reported as 95 % of control.

For CS(=O)(=NC(=S)Nc1ccccc1)c1ccccc1 (centres undefined), the T/C (dose: 75.0 mg/kg/injection, schedule: Q01DX001 (ip), vehicle: other) was 115 % of control, the T/C (dose: 150.0 mg/kg/injection, schedule: Q01DX001 (ip), vehicle: other) was 95 % of control and the T/C (dose: 300.0 mg/kg/injection, schedule: Q01DX001 (ip), vehicle: other) was 100 % of control.

With CCSc1nc(=S)cc(C)[nH]1 the T/C [4] was 105 % of control, the T/C [5] was 95 % of control and the T/C [6] was 100 % of control. The T/C [7] was 95 % of control, the T/C [8] was 105 % of control and the T/C [9] was 104 % of control.

For COc1ccc2c(c1OC)C(=O)OC2(O)C1=NCCc2cc3c(cc21)OCO3 (centres undefined), the T/C (dose: 50.0 mg/kg/injection, schedule: Q01DX005 (ip), vehicle: saline with Tween-80) was 111 % of control, the T/C (dose: 100.0 mg/kg/injection, schedule: Q01DX005 (ip), vehicle: saline with Tween-80) was 98 % of control and the T/C (dose: 200.0 mg/kg/injection, schedule: Q01DX005 (ip), vehicle: saline with Tween-80) was 109 % of control.

In the case of COC(=O)c1ccc(C(=O)OC)c(=O)[nH]1, the T/C [4] is reported as 100 % of control, the T/C [5] is reported as 104 % of control and the T/C [6] is reported as 95 % of control. The T/C [7] was 104 % of control, the T/C [8] was 91 % of control and the T/C [9] was 104 % of control.

For O=C(O)CNC(=O)CCl, the T/C (dose: 25.0 mg/kg/injection, schedule: Q01DX009 (ip), vehicle: Klucel (hydroxypropylcellulose) (HPC)) was 110 % of control, the T/C (dose: 50.0 mg/kg/injection, schedule: Q01DX009 (ip), vehicle: Klucel (hydroxypropylcellulose) (HPC)) was 120 % of control and the T/C [4] was 120 % of control. For the same molecule, the T/C (dose: 225.0 mg/kg/injection, schedule: Q01DX009 (ip), vehicle: Klucel (hydroxypropylcellulose) (HPC)) was 86 % of control.

COc1ccc(SC2=C(N(C)C(C)=O)C(=O)c3ccccc3C2=O)cc1 was tested, and the T/C (dose: 0.93 mg/kg/injection, schedule: Q01DX009 (ip), vehicle: Klucel (hydroxypropylcellulose) (HPC)) was 109 % of control, the T/C (dose: 1.87 mg/kg/injection, schedule: Q01DX009 (ip), vehicle: Klucel (hydroxypropylcellulose) (HPC)) was 113 % of control and the T/C (dose: 3.75 mg/kg/injection, schedule: Q01DX009 (ip), vehicle: Klucel (hydroxypropylcellulose) (HPC)) was 113 % of control. For the same molecule, the T/C (dose: 7.5 mg/kg/injection, schedule: Q01DX009 (ip), vehicle: Klucel (hydroxypropylcellulose) (HPC)) was 108 % of control, the T/C (dose: 11.0 mg/kg/injection, schedule: Q04DX003 (ip), vehicle: Klucel (hydroxypropylcellulose) (HPC)) was 100 % of control and the T/C (dose: 17.0 mg/kg/injection, schedule: Q04DX003 (ip), vehicle: Klucel (hydroxypropylcellulose) (HPC)) was 100 % of control.

With COc1ccc(Cc2nccc3c(OC)c(OC)ccc23)cc1OC the T/C (dose: 25.0 mg/kg/injection, schedule: Q01DX009 (ip), vehicle: saline) was 116 % of control, the T/C (dose: 50.0 mg/kg/injection, schedule: Q01DX009 (ip), vehicle: saline) was 106 % of control and 119 % of control and the T/C [2] was 103 % of control. For the same molecule, the T/C [3] was 119 % of control, the T/C (dose: 100.0 mg/kg/injection, schedule: Q01DX009 (ip), vehicle: saline) was 119 % of control and the T/C [17] was 103 % of control. The T/C (dose: 200.0 mg/kg/injection, schedule: Q01DX009 (ip), vehicle: saline) was 87 % of control and the T/C (dose: 200.0 mg/kg/injection, schedule: Q04DX003 (ip), vehicle: saline) was 87 % of control.

For Cc1ccc(C2=C(Cl)C(=O)NC2=O)s1, the T/C (dose: 12.5 mg/kg/injection, schedule: Q01DX001 (ip), vehicle: saline with Tween-80) was 112 % of control.

In the case of Nc1nc(SN=Nc2ccc(S(=O)(=O)O)cc2)c2[nH]cnc2n1, the T/C (dose: 4.0 mg/kg/injection, schedule: Q01DX009 (ip), vehicle: Klucel (hydroxypropylcellulose) (HPC)) is reported as 113 % of control, the T/C (dose: 9.0 mg/kg/injection, schedule: Q01DX009 (ip), vehicle: Klucel (hydroxypropylcellulose) (HPC)) is reported as 121 % of control and the T/C (dose: 20.0 mg/kg/injection, schedule: Q04DX003 (ip), vehicle: Klucel (hydroxypropylcellulose) (HPC)) is reported as 108 % of control. For the same molecule, the T/C (dose: 30.0 mg/kg/injection, schedule: Q04DX003 (ip), vehicle: Klucel (hydroxypropylcellulose) (HPC)) was 120 % of control, the T/C (dose: 45.0 mg/kg/injection, schedule: Q04DX003 (ip), vehicle: Klucel (hydroxypropylcellulose) (HPC)) was 112 % of control and the T/C (dose: 66.0 mg/kg/injection, schedule: Q04DX003 (ip), vehicle: saline) was 122 % of control. The T/C [17] was 118 % of control, the T/C (dose: 150.0 mg/kg/injection, schedule: Q04DX003 (ip), vehicle: Klucel (hydroxypropylcellulose) (HPC)) was 115 % of control and the T/C (dose: 150.0 mg/kg/injection, schedule: Q04DX003 (ip), vehicle: saline) was 113 % of control. The T/C [7] was 116 % of control.

Oc1c(Cl)cc(Cl)cc1C=Nc1cc(C(F)(F)F)ccc1Cl was tested, and the T/C [14] was 87 % of control, the T/C [15] was 89 % of control and the T/C [16] was 99 % of control.
